Data published in BindingDB's records for doi:10.1021/jm00126a020 (Sankyo, 1989).

Columns and labels:
[1] = biological target: T1, Thromboxane-A synthase (Homo sapiens, UniProt P24557); test: ChEBML_209951
T1 sequence (P24557 whole entry): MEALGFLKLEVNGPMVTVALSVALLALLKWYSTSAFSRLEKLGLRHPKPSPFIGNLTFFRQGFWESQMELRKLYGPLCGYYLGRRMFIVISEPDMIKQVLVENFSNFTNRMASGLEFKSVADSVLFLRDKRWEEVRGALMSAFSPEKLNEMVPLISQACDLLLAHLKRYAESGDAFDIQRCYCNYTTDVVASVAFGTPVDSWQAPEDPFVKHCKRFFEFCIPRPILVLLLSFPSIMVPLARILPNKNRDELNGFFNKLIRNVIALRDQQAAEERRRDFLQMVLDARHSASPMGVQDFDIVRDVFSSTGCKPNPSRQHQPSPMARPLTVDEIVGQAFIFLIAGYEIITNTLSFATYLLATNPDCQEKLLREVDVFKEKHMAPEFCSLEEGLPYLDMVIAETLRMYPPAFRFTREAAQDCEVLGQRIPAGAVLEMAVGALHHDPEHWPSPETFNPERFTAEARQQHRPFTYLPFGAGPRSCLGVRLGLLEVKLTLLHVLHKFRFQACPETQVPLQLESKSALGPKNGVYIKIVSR
Text: Inhibition of thromboxane A2 synthetase

[2] = biological target: Thromboxane-A synthase (Oryctolagus cuniculus); test: Inhibition of platelet microsomal thromboxane A2 synthetase in rabbits

Row | SMILES | IC50 [1] | IC50 [2]
1 | O=C(O)C1CCc2sc(Cn3ccnc3)cc2C1 (stereo not drawn) | 0.086 µM | 
2 | O=C(O)c1cc2c(s1)CC(Cn1ccnc1)CC2 (stereo not drawn) | 2.68 µM | 
3 | O=C(O)c1cc2c(s1)CCC(Cn1ccnc1)C2 (stereo not drawn) | 0.114 µM | 
4 | O=C(O)C1=Cc2cc(C(c3ccccc3)n3ccnc3)sc2CC1 (stereo not drawn) | 0.114 µM | 
5 | O=C(O)C1CCc2sc(CCn3ccnc3)cc2C1 (stereo not drawn) | 1.02 µM | 
6 | O=C(O)C1CCc2cc(CCn3ccnc3)sc2C1 (stereo not drawn) | 1.85 µM | 
7 | O=C(O)C1=Cc2cc(Cn3ccnc3)sc2CC1 | 0.093 µM | 
8 | O=C(O)C1=Cc2sc(CCn3ccnc3)cc2CC1 | > 10 µM | 
9 | O=C(O)C1=Cc2cc(C(C3CCCCC3)n3ccnc3)sc2CC1 (stereo not drawn) | > 10 µM | 
10 | CC(C)(C)C(c1cc2c(s1)CCC(C(=O)O)=C2)n1ccnc1 (stereo not drawn) | > 10 µM | 
11 | O=C(O)C1=Cc2cc(CCn3ccnc3)sc2CC1 | 0.1 µM | 
12 | O=C(O)C1=Cc2sc(Cn3ccnc3)cc2CC1 [2-Imidazol-1-ylmethyl-4,5-dihydro-benzo[b]thiophene-6-carboxylic acid] | 0.013 µM | 0.013 µM
